Our source for the IC50 values is patent US10307425B2, “Compositions and methods for treating toxoplasmosis, cryptosporidiosis and other apicomplexan protozoan related diseases” (UNIVERSITY OF WASHINGTON, priority 2015, dated 2019).

SMILES strings stand for the structures.

Chain of TgCDPK1 (Q9BJF5 1-507): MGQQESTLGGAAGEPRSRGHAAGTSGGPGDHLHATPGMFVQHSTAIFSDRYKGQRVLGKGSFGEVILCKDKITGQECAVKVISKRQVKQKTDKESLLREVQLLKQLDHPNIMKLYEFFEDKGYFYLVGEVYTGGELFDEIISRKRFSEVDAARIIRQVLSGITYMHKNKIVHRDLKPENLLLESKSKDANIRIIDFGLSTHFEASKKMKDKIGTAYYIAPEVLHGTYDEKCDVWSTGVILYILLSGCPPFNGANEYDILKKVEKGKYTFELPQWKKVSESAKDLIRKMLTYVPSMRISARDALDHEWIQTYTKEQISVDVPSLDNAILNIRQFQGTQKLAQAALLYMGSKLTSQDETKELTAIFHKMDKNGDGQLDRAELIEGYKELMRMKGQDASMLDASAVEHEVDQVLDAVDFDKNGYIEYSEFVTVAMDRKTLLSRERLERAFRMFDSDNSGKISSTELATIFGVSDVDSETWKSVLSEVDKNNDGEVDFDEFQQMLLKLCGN

The experiment concerns the target TgCDPK1 (Toxoplasma gondii, UniProt Q9BJF5). In words: biochemical.
Turning to `CC(C)(CO)Cn1nc(-c2ccc3nc(OCC(F)(F)F)ccc3c2)c2c(N)ncnc21` [Example 2, 3-(4-Amino-3-(2-(2,2,2-trifluoroethoxy)quinolin-6-yl)-1H-pyrazolo[3,4-d]pyrimidin-1-yl)-2,2-dimethylpropan-1-ol], the 50% inhibitory concentration (IC50) is 17.2 nM. That is a double-digit nanomolar value.
In turn, `CC(C)Cn1nc(-c2ccc3cc(OC4CC4)ccc3c2)c2c(N)ncnc21` [Example 9, 3-(6-cyclopropoxynaphthalen-2-yl)-1-isobutyl-1H-pyrazolo[3,4-d]pyrimidin-4-amine] displayed an IC50 of 6 nM. This IC50 lies about 2.9-fold lower than the previous one.
Next, `CN1CCC(Cn2nc(-c3ccc4cc(OC5COC5)ccc4c3)c3c(N)ncnc32)CC1` [Example 12, 1-((1-Methylpiperidin-4-yl)methyl)-3-(6-(oxetan-3-yloxy)naphthalen-2-yl)-1H-pyrazolo[3,4-d]pyrimidin-4-amine]: 10.7 nM.
Molecule `Nc1ncnc2c1c(-c1ccc3cc(OCC4CC4)ccc3c1)nn2CC1CCOCC1` [Example 29, 3-(6-(cyclopropylmethoxy)naphthalen-2-yl)-1-((tetrahydro-2H-pyran-4-yl)methyl)-1H-pyrazolo[3,4-d]pyrimidin-4-amine] yielded an IC50 of 4.8 nM.
Next, `Nc1ncnc2c1c(-c1ccc3cc(OC4CCC4)ccc3c1)nn2CC1CCOCC1` [Example 30, 3-(6-cyclobutoxynaphthalen-2-yl)-1-((tetrahydro-2H-pyran-4-yl)methyl)-1H-pyrazolo[3,4-d]pyrimidin-4-amine]: 2.6 nM.
In turn, `Nc1ncnc2c1c(-c1ccc3cc(OC4COC4)ccc3c1)nn2CC1CCOCC1` [Example 31, 3-(6-(oxetan-3-yloxy)naphthalen-2-yl)-1-((tetrahydro-2H-pyran-4-yl)methyl)-1H-pyrazolo[3,4-d]pyrimidin-4-amine] registered an IC50 of 35.8 nM.
Next, `CCOc1ccc2cc(-c3nn(CC(C)(C)CO)c4ncnc(N)c34)ccc2c1` [Example 32, 3-(4-amino-3-(6-ethoxynaphthalen-2-yl)-1H-pyrazolo[3,4-d]pyrimidin-1-yl)-2,2-dimethylpropan-1-ol]: 1.2 nM.
Next, `CC(C)Cn1nc(-c2ccc3cc(OCCO)ccc3c2)c2c(N)ncnc21` [Example 34, 2-(6-(4-amino-1-isobutyl-1H-pyrazolo[3,4-d]pyrimidin-3-yl)naphthalen-2-yloxy)ethanol]: 5.8 nM; `CC(C)Cn1nc(-c2ccc3cc(OC4COC4)ccc3c2)c2c(N)ncnc21` [Example 35, 1-isobutyl-3-(6-(oxetan-3-yloxy)naphthalen-2-yl)-1H-pyrazolo[3,4-d]pyrimidin-4-amine]: 4 nM; `COCCOc1ccc2cc(-c3nn(CC(C)C)c4ncnc(N)c34)ccc2c1` [Example 36, 1-isobutyl-3-(6-(2-methoxyethoxy)naphthalen-2-yl)-1H-pyrazolo[3,4-d]pyrimidin-4-amine]: 1.7 nM.
Next, `CCOc1ccc2cc(-c3nn(CC(C)(C)CO)c4ncnc(N)c34)ccc2n1` [Example 37, 3-(4-amino-3-(2-ethoxyquinolin-6-yl)-1H-pyrazolo[3,4-d]pyrimidin-1-yl)-2,2-dimethylpropan-1-ol]: 1.7 nM.
As for `COCCOc1ccc2cc(-c3nn(CC(C)(C)C)c4ncnc(N)c34)ccc2n1` [Example 38, 3-(2-(2-methoxyethoxy)quinolin-6-yl)-1-neopentyl-1H-pyrazolo[3,4-d]pyrimidin-4-amine], the IC50 came to 3.8 nM. Compared with the last molecule, the IC50 is about 2.2-fold higher.
The value for `Nc1ncnc2c1c(-c1ccc3nc(OC4CC4)ccc3c1)nn2CC1CCNCC1` [Example 39, 3-(2-cyclopropoxyquinolin-6-yl)-1-(piperidin-4-ylmethyl)-1H-pyrazolo[3,4-d]pyrimidin-4-amine] was 1 nM; that for `Nc1ncnc2c1c(-c1ccc3nc(OC4CC4)ccc3c1)nn2CC1CNC1` [Example 40, 1-(azetidin-3-ylmethyl)-3-(2-cyclopropoxyquinolin-6-yl)-1H-pyrazolo[3,4-d]pyrimidin-4-amine] was 2.3 nM; that for `CN1CC(Cn2nc(-c3ccc4nc(OC5CC5)ccc4c3)c3c(N)ncnc32)C1` [Example 41, 3-(2-cyclopropoxyquinolin-6-yl)-1-((1-methylazetidin-3-yl)methyl)-1H-pyrazolo[3,4-d]pyrimidin-4-amine] was 2.8 nM.
In turn, `COCCOc1ccc2cc(-c3nn(CC4CCN(C)CC4)c4ncnc(N)c34)ccc2n1` [Example 42, 3-(2-(2-methoxyethoxy)quinolin-6-yl)-1-((1-methylpiperidin-4-yl)methyl)-1H-pyrazolo[3,4-d]pyrimidin-4-amine] gave a half-inhibitory concentration (IC50) of 8 nM.
Next, `Nc1ncnc2c1c(-c1ccc3nc(OCC(F)(F)F)ccc3c1)nn2CC1CCNCC1` [Example 44, 1-(piperidin-4-ylmethyl)-3-(2-(2,2,2-trifluoroethoxy)quinolin-6-yl)-1H-pyrazolo[3,4-d]pyrimidin-4-amine]: 1.4 nM; `CC(C)(COCCO)Cn1nc(-c2ccc3nc(OC4CC4)ccc3c2)c2c(N)ncnc21` [Example 45, 2-(3-(4-amino-3-(2-cyclopropoxyquinolin-6-yl)-1H-pyrazolo[3,4-d]pyrimidin-1-yl)-2,2-dimethylpropoxy)ethanol]: 1200 nM; `CC(C)(O)Cn1nc(-c2ccc3nc(OCC(F)(F)F)ccc3c2)c2c(N)ncnc21` [Example 46, 1-(4-amino-3-(2-(2,2,2-trifluoroethoxy)quinolin-6-yl)-1H-pyrazolo[3,4-d]pyrimidin-1-yl)-2-methylpropan-2-ol]: 18.3 nM.
`CCOc1ccc2ccc(-c3nn(CC(C)C)c4ncnc(N)c34)cc2c1` [Example 47, 3-(7-ethoxynaphthalen-2-yl)-1-isobutyl-1H-pyrazolo[3,4-d]pyrimidin-4-amine] yielded an IC50 of 10.8 nM.
Next, `CCOc1ccc2ccc(-c3nn(CC4CCNCC4)c4ncnc(N)c34)cc2c1` [Example 48, 3-(7-ethoxynaphthalen-2-yl)-1-(piperidin-4-ylmethyl)-1H-pyrazolo[3,4-d]pyrimidin-4-amine]: 19.1 nM.
For the molecule `CCOc1ccc2cc(-c3nn(CC4(C)COC4)c4ncnc(N)c34)ccc2c1` [Example 49, 3-(6-ethoxynaphthalen-2-yl)-1-((3-methyloxetan-3-yl)methyl)-1H-pyrazolo[3,4-d]pyrimidin-4-amine], 2.9 nM corresponded to half-maximal inhibition (IC50). Against the preceding molecule, the IC50 is about 6.6-fold lower.
For `CCOc1ccc2cc(-c3nn(CC(=O)N4CCOCC4)c4ncnc(N)c34)ccc2c1` [Example 50, 2-(4-amino-3-(6-ethoxynaphthalen-2-yl)-1H-pyrazolo[3,4-d]pyrimidin-1-yl)-1-morpholinoethanone], 42.9 nM corresponded to half-maximal inhibition (IC50).
On to `Nc1ncnc2c1c(-c1ccc3cc(OC4CC4)ccc3c1)nn2CC(=O)N1CCOCC1` [Example 51, 2-(4-amino-3-(6-cyclopropoxynaphthalen-2-yl)-1H-pyrazolo[3,4-d]pyrimidin-1-yl)-1-morpholinoethanone], for which the IC50 came out at 15.8 nM.
`COCc1ccc2cc(-c3nn(CC(O)(C(F)(F)F)C(F)(F)F)c4ncnc(N)c34)ccc2c1` [Example 52, 2-((4-amino-3-(6-(methoxymethyl)naphthalen-2-yl)-1H-pyrazolo[3,4-d]pyrimidin-1-yl)methyl)-1,1,1,3,3,3-hexafluoropropan-2-ol] showed an IC50 of 84.2 nM. Compared with the last molecule, the IC50 is about 5.3-fold higher.
With `Nc1ncnc2c1c(-c1ccc3nc(OC4CC4)ccc3c1)nn2CC(O)(C(F)(F)F)C(F)(F)F` [Example 53, 2-((4-amino-3-(2-cyclopropoxyquinolin-6-yl)-1H-pyrazolo[3,4-d]pyrimidin-1-yl)methyl)-1,1,1,3,3,3-hexafluoropropan-2-ol], 47.3 nM corresponded to half-maximal inhibition (IC50). Compared with the last molecule, the IC50 is about 1.8-fold lower.
`CC(C)(O)Cn1cc(-c2ccc3nc(OC4CC4)ccc3c2)c2c(N)ncnc21` [Example 55, 1-(4-amino-5-(2-cyclopropoxyquinolin-6-yl)-7H-pyrrolo[2,3-d]pyrimidin-7-yl)-2-methylpropan-2-ol] had an IC50 of 3.2 nM.
In the case of `CC(C)(O)C(C)(C)Cn1nc(-c2ccc3nc(OC4CC4)ccc3c2)c2c(N)ncnc21` [Example 56, 4-(4-amino-3-(2-cyclopropoxyquinolin-6-yl)-1H-pyrazolo[3,4-d]pyrimidin-1-yl)-2,3,3-trimethylbutan-2-ol], half-maximal inhibition (IC50) was put at 70.8 nM.
For `Nc1ncnc2c1c(-c1ccc3nc(OC4CC4)ccc3c1)nn2CC1(O)CCC1` [Example 57, 1-((4-amino-3-(2-cyclopropoxyquinolin-6-yl)-1H-pyrazolo[3,4-d]pyrimidin-1-yl)methyl)cyclobutanol], half-maximal inhibition (IC50) was put at 6.1 nM.
The value for `CC(C)(O)Cn1cc(-c2ccc3cc(OC4CC4)ccc3c2)c2c(N)ncnc21` [Example 58, 1-(4-amino-5-(6-cyclopropoxynaphthalen-2-yl)-7H-pyrrolo[2,3-d]pyrimidin-7-yl)-2-methylpropan-2-ol] was 9.1 nM.
The value for `Nc1ncnc2c1c(-c1ccc3cc(OC4CC4)ccc3c1)nn2CC1(O)CCC1` [Example 59, 1-((4-amino-3-(6-cyclopropoxynaphthalen-2-yl)-1H-pyrazolo[3,4-d]pyrimidin-1-yl)methyl)cyclobutanol] was 8.6 nM.
Molecule `Nc1ncnc2c1c(-c1ccc3nc(OC4CC4)ccc3c1)nn2CC1(O)CCCC1` [Example 60, 1-((4-amino-3-(2-cyclopropoxyquinolin-6-yl)-1H-pyrazolo[3,4-d]pyrimidin-1-yl)methyl)cyclopentanol] yielded an IC50 of 12.7 nM.
The value for `Nc1ncnc2c1c(-c1ccc3cc(OC4CC4)ccc3c1)nn2CC1(O)CCCC1` [Example 61, 1-((4-amino-3-(6-cyclopropoxynaphthalen-2-yl)-1H-pyrazolo[3,4-d]pyrimidin-1-yl)methyl)cyclopentanol] was 13 nM; that for `Nc1ncnc2c1c(-c1ccc3nc(OC4CC4)ccc3c1)nn2CC1(O)CCOCC1` [Example 62, 4-((4-amino-3-(2-cyclopropoxyquinolin-6-yl)-1H-pyrazolo[3,4-d]pyrimidin-1-yl)methyl)-tetrahydro-2H-pyran-4-ol] was 19.2 nM.
The molecule `Nc1ncnc2c1c(-c1ccc3cc(OC4CC4)ccc3c1)nn2CC1(O)CCOCC1` [Example 63, 4-((4-amino-3-(6-cyclopropoxynaphthalen-2-yl)-1H-pyrazolo[3,4-d]pyrimidin-1-yl)methyl)-tetrahydro-2H-pyran-4-ol] returned an IC50 of 12.8 nM. This IC50 and that of the molecule before are within 1.5-fold of each other.
`Nc1ncnc2c1c(-c1ccc3nc(OC4CC4)ccc3c1)nn2CC1(CO)COC1` [Example 64, (3-((4-amino-3-(2-cyclopropoxyquinolin-6-yl)-1H-pyrazolo[3,4-d]pyrimidin-1-yl)methyl)oxetan-3-yl)methanol] displayed an IC50 of 3.6 nM. This IC50 lies about 3.6-fold lower than the previous one.

Broadly, the IC50 is the point on the concentration scale where inhibition reaches its midpoint. High values mean lower potency, low ones higher potency.
